Laboratory results from paper PMC7265341, “Quantifying CDK inhibitor selectivity in live cells” (Nature Communications, 2020).
Read-outs that look alike come from different tables or passages of the source.

Assays:
CDK20/Cyclin H = CDK20/Cyclin H (Homo sapiens, UniProt Q8IZL9); test: NanoBRET live-cell target engagement, NanoLuc-CDK20/Cyclin H in HEK-293; assay type: binding; conditions: CDK20/H, 10µM
CDK8/Cyclin C = CDK8/Cyclin C (Homo sapiens, UniProt P49336); test: NanoBRET live-cell target engagement, NanoLuc-CDK8/Cyclin C in HEK-293; assay type: binding; conditions: CDK8/C
Sequence of CDK8/Cyclin C (P49336 whole entry): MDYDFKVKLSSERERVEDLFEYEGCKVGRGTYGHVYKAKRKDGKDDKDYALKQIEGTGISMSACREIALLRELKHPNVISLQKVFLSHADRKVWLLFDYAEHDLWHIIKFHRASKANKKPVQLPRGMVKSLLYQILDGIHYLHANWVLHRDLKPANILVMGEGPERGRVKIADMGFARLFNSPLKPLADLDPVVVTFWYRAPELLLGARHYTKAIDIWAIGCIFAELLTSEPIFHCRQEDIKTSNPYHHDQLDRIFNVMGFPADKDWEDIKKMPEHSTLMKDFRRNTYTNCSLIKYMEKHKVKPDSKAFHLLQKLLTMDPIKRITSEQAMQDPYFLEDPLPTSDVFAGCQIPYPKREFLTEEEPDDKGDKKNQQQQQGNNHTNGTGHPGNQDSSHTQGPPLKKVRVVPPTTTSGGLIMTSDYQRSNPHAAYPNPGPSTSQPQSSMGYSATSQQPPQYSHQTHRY
Sequence of CDK8/Cyclin C (P24863 whole entry partner): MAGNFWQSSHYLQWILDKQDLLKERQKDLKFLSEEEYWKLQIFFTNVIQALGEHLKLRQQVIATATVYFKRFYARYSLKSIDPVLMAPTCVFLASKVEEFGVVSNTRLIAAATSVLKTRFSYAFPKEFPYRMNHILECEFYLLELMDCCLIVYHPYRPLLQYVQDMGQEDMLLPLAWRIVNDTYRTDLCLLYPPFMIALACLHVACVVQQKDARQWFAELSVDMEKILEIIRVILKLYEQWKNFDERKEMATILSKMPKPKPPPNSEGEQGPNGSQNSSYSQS

CDK7 = CDK7 (Homo sapiens, UniProt P50613); test: NanoBRET live-cell target engagement, NanoLuc-CDK7 in HEK-293; assay type: binding; conditions: CDK7, 10µM
CDK16/Cyclin Y = CDK16/Cyclin Y (Homo sapiens, UniProt Q00536); test: NanoBRET live-cell target engagement, CDK16-NanoLuc/Cyclin Y in HEK-293; assay type: binding; conditions: CDK16/Y, 10µM
CDK4/Cyclin D1 = CDK4/Cyclin D1 (Homo sapiens, UniProt P11802); test: NanoBRET live-cell target engagement, NanoLuc-CDK4/Cyclin D1 in HEK-293; assay type: binding; conditions: CDK4/D1, 10µM
CDK17/Cyclin Y = CDK17/Cyclin Y (Homo sapiens, UniProt Q00537); test: NanoBRET live-cell target engagement, CDK17-NanoLuc/Cyclin Y in HEK-293; assay type: binding; conditions: CDK17/Y, 10µM
CDK14/Cyclin Y = CDK14/Cyclin Y (Homo sapiens, UniProt O94921); test: NanoBRET live-cell target engagement, CDK14-NanoLuc/Cyclin Y in HEK-293; assay type: binding; conditions: CDK14/Y, 10µM
CDK10/Cyclin L2 = CDK10/Cyclin L2 (Homo sapiens, UniProt Q15131); test: NanoBRET live-cell target engagement, CDK10-NanoLuc/Cyclin L2 in HEK-293; conditions: 10µM
CDK13/Cyclin K = CDK13/Cyclin K (Homo sapiens, UniProt Q14004); test: NanoBRET live-cell target engagement, CDK13-NanoLuc/Cyclin K in HEK-293; assay type: binding; conditions: CDK13/K, 10µM
Sequence of CDK13/Cyclin K (O75909 whole entry): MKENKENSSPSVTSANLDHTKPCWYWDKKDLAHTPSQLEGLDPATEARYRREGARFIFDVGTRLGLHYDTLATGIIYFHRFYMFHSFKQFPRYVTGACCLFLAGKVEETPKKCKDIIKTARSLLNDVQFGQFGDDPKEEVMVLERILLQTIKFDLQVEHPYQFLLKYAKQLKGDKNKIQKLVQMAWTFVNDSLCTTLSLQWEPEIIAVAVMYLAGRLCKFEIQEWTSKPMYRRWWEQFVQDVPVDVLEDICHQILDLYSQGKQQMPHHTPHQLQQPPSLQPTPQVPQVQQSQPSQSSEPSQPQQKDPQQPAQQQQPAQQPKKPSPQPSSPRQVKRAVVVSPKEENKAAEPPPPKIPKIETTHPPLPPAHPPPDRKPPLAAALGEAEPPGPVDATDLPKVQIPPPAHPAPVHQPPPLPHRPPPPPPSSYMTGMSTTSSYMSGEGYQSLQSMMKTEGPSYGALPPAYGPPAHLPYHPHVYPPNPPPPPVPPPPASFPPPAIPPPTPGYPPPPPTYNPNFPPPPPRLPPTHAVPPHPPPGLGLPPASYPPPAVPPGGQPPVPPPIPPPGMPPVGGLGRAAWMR
Sequence of CDK13/Cyclin K (Q14004 other isoform, or with tags, fused parts or gaps): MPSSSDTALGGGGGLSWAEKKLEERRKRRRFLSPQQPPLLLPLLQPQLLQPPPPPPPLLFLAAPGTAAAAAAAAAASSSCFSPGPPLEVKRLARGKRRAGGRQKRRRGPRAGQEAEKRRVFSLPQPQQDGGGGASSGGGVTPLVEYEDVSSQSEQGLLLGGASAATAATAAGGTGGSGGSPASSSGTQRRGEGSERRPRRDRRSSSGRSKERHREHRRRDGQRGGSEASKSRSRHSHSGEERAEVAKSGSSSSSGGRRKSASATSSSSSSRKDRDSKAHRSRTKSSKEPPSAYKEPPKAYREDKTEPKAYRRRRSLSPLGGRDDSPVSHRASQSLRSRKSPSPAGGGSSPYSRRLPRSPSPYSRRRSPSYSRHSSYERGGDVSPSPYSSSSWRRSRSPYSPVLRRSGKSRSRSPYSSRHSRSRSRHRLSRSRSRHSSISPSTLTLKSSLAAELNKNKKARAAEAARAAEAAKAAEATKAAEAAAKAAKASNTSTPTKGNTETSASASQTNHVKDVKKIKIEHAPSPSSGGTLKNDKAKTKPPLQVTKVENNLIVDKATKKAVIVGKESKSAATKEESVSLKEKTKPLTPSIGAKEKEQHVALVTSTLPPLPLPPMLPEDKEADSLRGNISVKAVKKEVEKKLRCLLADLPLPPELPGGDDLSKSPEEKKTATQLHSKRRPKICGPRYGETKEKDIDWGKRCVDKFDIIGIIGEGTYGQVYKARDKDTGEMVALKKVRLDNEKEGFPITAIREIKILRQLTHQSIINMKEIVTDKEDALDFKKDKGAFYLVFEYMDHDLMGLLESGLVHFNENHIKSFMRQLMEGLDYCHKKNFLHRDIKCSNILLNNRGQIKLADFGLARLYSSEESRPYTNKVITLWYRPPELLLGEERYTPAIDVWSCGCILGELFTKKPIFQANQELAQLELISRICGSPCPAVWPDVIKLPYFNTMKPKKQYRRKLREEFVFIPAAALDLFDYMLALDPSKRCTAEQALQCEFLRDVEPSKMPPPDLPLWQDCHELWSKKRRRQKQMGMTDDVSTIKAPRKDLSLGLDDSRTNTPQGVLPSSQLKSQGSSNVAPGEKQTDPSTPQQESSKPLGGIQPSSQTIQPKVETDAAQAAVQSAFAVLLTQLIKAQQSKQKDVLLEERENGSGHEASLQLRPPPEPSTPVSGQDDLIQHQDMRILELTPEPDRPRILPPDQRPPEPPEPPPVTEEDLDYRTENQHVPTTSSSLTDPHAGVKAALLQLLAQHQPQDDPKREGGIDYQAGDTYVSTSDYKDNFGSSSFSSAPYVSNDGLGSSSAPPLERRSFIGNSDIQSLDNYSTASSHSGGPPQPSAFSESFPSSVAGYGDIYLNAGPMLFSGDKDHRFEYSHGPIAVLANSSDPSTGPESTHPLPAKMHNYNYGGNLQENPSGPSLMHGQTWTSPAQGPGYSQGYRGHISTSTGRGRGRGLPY

CDK6/Cyclin D1 = CDK6/Cyclin D1 (Homo sapiens, UniProt Q00534); test: NanoBRET live-cell target engagement, NanoLuc-CDK6/Cyclin D1 in HEK-293; assay type: binding; conditions: CDK6/D1, 10µM
CDK15/Cyclin Y = CDK15/Cyclin Y (Homo sapiens, UniProt Q96Q40); test: NanoBRET live-cell target engagement, NanoLuc-CDK15/Cyclin Y in HEK-293; assay type: binding; conditions: CDK15/Y, 10µM
CDK12/Cyclin K = CDK12/Cyclin K (Homo sapiens, UniProt Q9NYV4); test: NanoBRET live-cell target engagement, CDK12-NanoLuc/Cyclin K in HEK-293; assay type: binding; conditions: CDK12/K, 10µM
CDK5/CDK5R1 = CDK5/CDK5R1 (Homo sapiens, UniProt Q00535); test: NanoBRET live-cell target engagement, CDK5-NanoLuc/CDK5R1 in HEK-293; assay type: binding; conditions: CDK5/CDK5R1, 10µM
Sequence of CDK5/CDK5R1 (Q00535 whole entry): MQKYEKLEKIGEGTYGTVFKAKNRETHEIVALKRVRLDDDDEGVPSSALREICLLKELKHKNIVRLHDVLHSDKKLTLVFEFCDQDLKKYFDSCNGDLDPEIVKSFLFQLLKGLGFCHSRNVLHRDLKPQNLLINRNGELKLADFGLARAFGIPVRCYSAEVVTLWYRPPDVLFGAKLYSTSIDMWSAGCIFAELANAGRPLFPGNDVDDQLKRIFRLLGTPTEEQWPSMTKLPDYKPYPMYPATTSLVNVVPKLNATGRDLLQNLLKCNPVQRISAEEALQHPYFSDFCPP
Sequence of CDK5/CDK5R1 (Q15078 whole entry partner): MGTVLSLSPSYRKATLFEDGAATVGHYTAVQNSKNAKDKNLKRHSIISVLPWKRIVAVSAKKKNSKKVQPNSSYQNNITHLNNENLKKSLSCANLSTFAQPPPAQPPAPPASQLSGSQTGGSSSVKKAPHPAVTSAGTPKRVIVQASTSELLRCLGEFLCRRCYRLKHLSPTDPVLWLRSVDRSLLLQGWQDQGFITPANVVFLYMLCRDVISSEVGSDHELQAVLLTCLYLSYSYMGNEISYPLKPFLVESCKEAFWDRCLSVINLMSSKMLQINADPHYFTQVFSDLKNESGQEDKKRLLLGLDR

CDK1/Cyclin E1 = CDK1/Cyclin E1 (Homo sapiens, UniProt P06493); test: NanoBRET live-cell target engagement, CDK1-NanoLuc/Cyclin E1 in HEK-293; assay type: binding; conditions: CDK1/E1, 10µM
Sequence of CDK1/Cyclin E1 (P06493 whole entry): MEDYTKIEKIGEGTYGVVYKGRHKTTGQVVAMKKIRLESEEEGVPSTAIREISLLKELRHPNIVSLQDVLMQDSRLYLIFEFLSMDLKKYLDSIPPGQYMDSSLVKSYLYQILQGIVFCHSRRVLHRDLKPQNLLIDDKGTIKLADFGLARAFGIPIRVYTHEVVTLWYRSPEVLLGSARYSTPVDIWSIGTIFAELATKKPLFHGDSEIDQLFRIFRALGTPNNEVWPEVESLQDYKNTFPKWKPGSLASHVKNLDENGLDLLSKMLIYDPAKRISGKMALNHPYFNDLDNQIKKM
Sequence of CDK1/Cyclin E1 (P24864 whole entry partner): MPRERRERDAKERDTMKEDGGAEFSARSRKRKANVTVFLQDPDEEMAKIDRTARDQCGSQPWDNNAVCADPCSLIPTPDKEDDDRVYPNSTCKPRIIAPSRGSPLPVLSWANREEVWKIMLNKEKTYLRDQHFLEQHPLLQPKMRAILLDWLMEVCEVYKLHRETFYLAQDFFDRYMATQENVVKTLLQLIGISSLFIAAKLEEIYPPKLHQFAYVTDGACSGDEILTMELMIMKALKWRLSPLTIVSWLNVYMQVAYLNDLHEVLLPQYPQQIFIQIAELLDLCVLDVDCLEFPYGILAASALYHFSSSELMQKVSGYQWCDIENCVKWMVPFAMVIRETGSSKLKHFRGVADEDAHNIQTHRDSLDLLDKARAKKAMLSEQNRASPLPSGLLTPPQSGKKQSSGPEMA

CDK18/Cyclin Y = CDK18/Cyclin Y (Homo sapiens, UniProt Q07002); test: NanoBRET live-cell target engagement, CDK18-NanoLuc/Cyclin Y in HEK-293; assay type: binding; conditions: CDK18/Y
Sequence of CDK18/Cyclin Y (Q07002 whole entry): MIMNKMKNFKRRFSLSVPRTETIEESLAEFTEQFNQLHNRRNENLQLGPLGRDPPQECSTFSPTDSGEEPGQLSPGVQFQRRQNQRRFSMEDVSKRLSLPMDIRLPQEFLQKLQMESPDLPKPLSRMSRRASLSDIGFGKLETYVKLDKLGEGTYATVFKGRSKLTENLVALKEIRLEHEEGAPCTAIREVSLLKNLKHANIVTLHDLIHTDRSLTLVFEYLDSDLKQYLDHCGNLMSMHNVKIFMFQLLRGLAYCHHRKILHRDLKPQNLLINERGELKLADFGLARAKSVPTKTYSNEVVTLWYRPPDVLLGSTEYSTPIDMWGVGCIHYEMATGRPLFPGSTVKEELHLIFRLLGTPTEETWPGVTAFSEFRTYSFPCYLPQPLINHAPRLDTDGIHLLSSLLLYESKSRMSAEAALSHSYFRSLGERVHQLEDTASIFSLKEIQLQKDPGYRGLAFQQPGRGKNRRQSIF
Sequence of CDK18/Cyclin Y (Q8ND76 whole entry partner): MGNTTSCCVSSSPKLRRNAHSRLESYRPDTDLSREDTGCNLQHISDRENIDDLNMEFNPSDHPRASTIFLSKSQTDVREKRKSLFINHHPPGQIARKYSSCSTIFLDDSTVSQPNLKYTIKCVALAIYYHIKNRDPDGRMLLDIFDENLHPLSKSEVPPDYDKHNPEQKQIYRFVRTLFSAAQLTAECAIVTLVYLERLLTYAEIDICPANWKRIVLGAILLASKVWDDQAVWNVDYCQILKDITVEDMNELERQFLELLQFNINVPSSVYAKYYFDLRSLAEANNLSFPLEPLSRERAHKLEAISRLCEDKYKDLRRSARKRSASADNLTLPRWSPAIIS

CDK11B/Cyclin L2 = CDK11B/Cyclin L2 (Homo sapiens, UniProt P21127); test: NanoBRET live-cell target engagement, CDK11B-NanoLuc/Cyclin L2 in HEK-293; assay type: binding; conditions: CDK11b/L2, 10µM
CDK19/Cyclin C = CDK19/Cyclin C (Homo sapiens, UniProt Q9BWU1); test: NanoBRET live-cell target engagement, NanoLuc-CDK19/Cyclin C in HEK-293
[1] = read-out: Inhibition at 10µM (%) Replicate 1
[2] = read-out: Inhibition at 10µM (%) Replicate 2
[3] = average of replicates, read-out: Inhibition at 10µM (%) Average
[4] = n=3 average ± SEM, n=2 average to 2 significant figures, read-out: IC50 (nM) Average*
[5] = read-out: IC50 (nM) Replicate 1
[6] = read-out: IC50 (nM) Replicate 2

Work on `Cc1ncc(-c2ccnc(Nc3ccc(S(C)(=O)=O)cc3)n2)n1C(C)C` [AZD5438] yielded an inhibition at 10 µM (CDK20/Cyclin H; [1]) of 22.8%, an inhibition at 10 µM (CDK20/Cyclin H; [2]) of 25.6% and an inhibition at 10 µM (CDK8/Cyclin C; [3]) of 90.5%. It also gave an inhibition at 10 µM (CDK8/Cyclin C; [1]) of 94.1%, an IC50 (CDK8/Cyclin C; [4]) of 200 nM and an IC50 (CDK8/Cyclin C; [5]) of 330 nM. It also gave an IC50 (CDK8/Cyclin C; [6]) of 79 nM, an inhibition at 10 µM (CDK7; [3]) of 77.1% and an inhibition at 10 µM (CDK7; [1]) of 71.7%. The inhibition at 10 µM (CDK7; [2]) was 82.5%, the inhibition at 10 µM (CDK16/Cyclin Y; [1]) was 90% and the inhibition at 10 µM (CDK16/Cyclin Y; [2]) was 89.6%. For the same compound, the inhibition at 10 µM (CDK4/Cyclin D1; [3]) was 89.9%, the inhibition at 10 µM (CDK4/Cyclin D1; [1]) was 88.9% and the inhibition at 10 µM (CDK4/Cyclin D1; [2]) was 90.9%. For the same compound, the inhibition at 10 µM (CDK17/Cyclin Y; [3]) was 90.7%, the inhibition at 10 µM (CDK17/Cyclin Y; [1]) was 91.3% and the inhibition at 10 µM (CDK17/Cyclin Y; [2]) was 90.1%. The inhibition at 10 µM (CDK14/Cyclin Y; [3]) was 70.3%, the inhibition at 10 µM (CDK14/Cyclin Y; [1]) was 69.6% and the inhibition at 10 µM (CDK14/Cyclin Y; [2]) was 71%. For the same compound, the inhibition at 10 µM (CDK10/Cyclin L2; read-out: Inhibition at 10µM (%) Average, CDK10/L2, average of replicates) was 64.8%, the inhibition at 10 µM (CDK10/Cyclin L2; read-out: Inhibition at 10µM (%) Replicate 1, CDK10/L2) was 63.3% and the inhibition at 10 µM (CDK10/Cyclin L2; read-out: Inhibition at 10µM (%) Replicate 2, CDK10/L2) was 66.2%. It also gave an inhibition at 10 µM (CDK13/Cyclin K; [3]) of 15.8%, an inhibition at 10 µM (CDK13/Cyclin K; [1]) of 21.6% and an inhibition at 10 µM (CDK13/Cyclin K; [2]) of 10.1%. The inhibition at 10 µM (CDK6/Cyclin D1; [3]) was 91.2%, the inhibition at 10 µM (CDK6/Cyclin D1; [1]) was 90.8% and the inhibition at 10 µM (CDK6/Cyclin D1; [2]) was 91.7%. The inhibition at 10 µM (CDK15/Cyclin Y; [3]) was 72.1%, the inhibition at 10 µM (CDK15/Cyclin Y; [1]) was 69.4% and the inhibition at 10 µM (CDK15/Cyclin Y; [2]) was 74.8%. It also gave an inhibition at 10 µM (CDK12/Cyclin K; [3]) of 17.1%, an inhibition at 10 µM (CDK12/Cyclin K; [1]) of 15.7% and an inhibition at 10 µM (CDK12/Cyclin K; [2]) of 18.5%. It also gave an inhibition at 10 µM (CDK5/CDK5R1; [3]) of 90.8%, an inhibition at 10 µM (CDK5/CDK5R1; [1]) of 87.9% and an inhibition at 10 µM (CDK5/CDK5R1; [2]) of 93.8%. For the same compound, the inhibition at 10 µM (CDK1/Cyclin E1; [3]) was 78.5%, the inhibition at 10 µM (CDK1/Cyclin E1; [1]) was 78.7% and the inhibition at 10 µM (CDK1/Cyclin E1; [2]) was 78.3%. For the same compound, the inhibition at 10 µM (CDK18/Cyclin Y; [3]) was 90%, the inhibition at 10 µM (CDK18/Cyclin Y; [1]) was 84.4% and the inhibition at 10 µM (CDK18/Cyclin Y; [2]) was 95.5%. For the same compound, the IC50 (CDK18/Cyclin Y; [4]) was 670 nM, the IC50 (CDK18/Cyclin Y; [5]) was 566 nM and the IC50 (CDK18/Cyclin Y; [6]) was 770 nM. The inhibition at 10 µM (CDK11B/Cyclin L2; [3]) was 70.1%, the inhibition at 10 µM (CDK11B/Cyclin L2; [1]) was 70.5% and the inhibition at 10 µM (CDK11B/Cyclin L2; [2]) was 69.7%. The IC50 (CDK19/Cyclin C; IC50 (nM) Average*, CDK19/Y, n=3 average ± SEM, n=2 average to 2 significant figures) was 300 nM, the IC50 (CDK19/Cyclin C; IC50 (nM) Replicate 1, CDK19/C) was 470 nM and the IC50 (CDK19/Cyclin C; IC50 (nM) Replicate 2, CDK19/C) was 140 nM. For the same compound, the inhibition at 10 µM (CDK19/Cyclin C; read-out: Inhibition at 10µM (%) Average, CDK19/C, average of replicates) was 92.8%, the inhibition at 10 µM (CDK19/Cyclin C; read-out: Inhibition at 10µM (%) Replicate 1, CDK19/C) was 90.6% and the inhibition at 10 µM (CDK19/Cyclin C; read-out: Inhibition at 10µM (%) Replicate 2, CDK19/C) was 95.1%.
